Results taken from patent US20250388575A1, “HETEROBIFUNCTIONAL COMPOUNDS AND METHODS OF TREATING DISEASE” (Halda Therapeutics OpCo, Inc., priority 2022, published 2025).
Where two headings read alike, the source gives them in different places.

What was measured:
[1] = test system: T-Rex 293 cell line SC3 cells lacking increased expression of androgen receptor protein; experiment: Cellular growth inhibition, T-Rex 293 SC3 cells lacking increased androgen receptor expression (no doxycycline), CellTiter-Glo; format: cell-based
Method: (§1) The following types of cells were prepared for this experiment: (i) a T-Rex 293 cell line having increased expression of androgen receptor protein due to exposure to doxycycline and (ii) a T-Rex 293 cell line lacking increased expression of androgen receptor protein. Ability of the test compounds to inhibit proliferation of the foregoing cell types was evaluated according to the procedures set forth below.
(§2) The doxycycline-inducible androgen receptor protein expressing cell line was established using the following protocol: T-Rex 293 cells were purchased from Invitrogen (Cat #R71007) and transfected using Lipofectamine 2000 with the wild-type androgen receptor protein sequence cloned into the pcDNA4/TO vector. Transfected cells were selected using 400 μg/mL Zeocin (Invitrogen Cat #R25001). Following selection, single clones were raised and maintained in Dulbecco's Modified Eagle Medium (DMEM) supplemented with 10% w/w Tetracycline-free fetal bovine serum (FBS) and 250 μg/mL Zeocin. Clones were analyzed for expression of androgen receptor protein in the presence and absence of 10 ng/ml doxycycline (Sigma Cat #D9891), and a single doxycycline-inducible clone (hereinafter “SC3”) was selected for use in downstream assays.
(§3) The SC3 cells were seeded on poly-D-lysine coated, black clear-bottom 384-well plates at 2500/well, in 25 μL Phenol Red Free Dulbecco's Modified Eagle Medium (DMEM) supplemented with 10% w/w charcoal-dextran treated fetal bovine serum (FBS) and 1% w/w pen-strep, with or without 10 ng/mL doxycycline. Pen-Strep is a commercially available mixture of penicillin G and streptomycin, which is used in mammalian cell culture media to prevent bacterial contamination. Phenol Red Free Dulbecco's Modified Eagle Medium (DMEM) supplemented with 10% w/w charcoal-dextran treated fetal bovine serum (FBS) and 1% w/w pen-strep, with or without 10 ng/mL doxycycline is herein referred to as Treatment Medium. Following seeding of cells in the plates, the plates were spun at 300×g for 30 seconds, then equilibrated to room temperature for 30 minutes, and then deposited in a humidified tissue culture incubator maintained at 37° C. with 5% CO2.
(§4) At 24 hours after seeding of the cells, dilutions of test compound were prepared in DMSO and dissolved in Treatment Medium, to achieve a final DMSO concentration of 0.5% w/w, thereby providing the Test Compound Solution. A 25 μL aliquot of the Test Compound Solution was added to cells in the well plates. An equal volume of a solution containing DMSO and Treatment Medium was used as a negative control. Following treatment of cells with Test Compound Solution or said equal volume of a solution containing DMSO and Treatment Medium, the plates were spun at 300×g for 30 seconds, and then left in an incubator for 72 hours.
(§5) At the end of the treatment duration, cell viability was quantified with CellTiter-Glo 2.0 reagent (Promega Cat #G9243). For this purpose, plates were equilibrated to room temperature for 30 minutes, and then 25 μL of CellTiter-Glo 2.0 reagent was added to cells in the plate wells. Plates were then agitated on a shaker for two minutes at 500 rpm and subsequently incubated at room temperature for 10 minutes. Following incubation, the plates were spun at 3000×g for 30 seconds, then sealed with an optical adhesive cover, and luminescence readings were measured with an EnVision Plate Reader.
(§6) Data was normalized using zero luminescence for baseline. A four-parameter non-linear regression curve fit was applied to dose-response data in GraphPad Prism data analysis software to determine the half-maximal growth inhibitory concentration (GI50) for each test compound.

[2] = test system: T-Rex 293 cell line SC3 cells having increased expression of androgen receptor protein; experiment: Cellular growth inhibition, T-Rex 293 SC3 cells with increased androgen receptor expression (doxycycline), CellTiter-Glo; format: cell-based
Method: as §1, §2, §3, §4, §5, §6

[3] = test system: VCaP cells; experiment: Cellular growth inhibition assay for VCaP cells, CellTiter-Glo; format: cell-based, human
Method: VCaP cells were purchased from American Type Cell Culture (ATCC Cat #CRL2876) and then seeded on poly-D-lysine coated, black clear-bottom 384-well plates at 5000/well in 25 μL Dulbecco's Modified Eagle Medium (DMEM) supplemented with 10% w/w Fetal bovine serum (FBS) and 1% w/w Pen-Strep. Pen-Strep is a commercially available mixture of penicillin G and streptomycin, which is used in mammalian cell culture media to prevent bacterial contamination. Dulbecco's Modified Eagle Medium (DMEM) supplemented with 10% w/w fetal bovine serum (FBS) and 1% w/w Pen-Strep is herein referred to as Treatment Medium. Following seeding of cells in the plates, the plates were spun at 300×g for 30 seconds, then equilibrated to room temperature for 30 minutes, and then deposited in a humidified tissue culture incubator maintained at 37° C. with 5% CO2.
as §4, §5, §6

[4] = T-Rex 293 SC3 cells lacking increased androgen receptor expression (not exposed to doxycycline), 72 hours, CellTiter-Glo, read-out: GI50
[5] = T-Rex 293 SC3 cells with increased androgen receptor expression (exposed to 10 ng/mL doxycycline), 72 hours, CellTiter-Glo, read-out: GI50
[6] = Homo sapiens, VCaP cells, 72 hours, CellTiter-Glo, read-out: GI50
[7] = VCaP cells, 72 hours, CellTiter-Glo, read-out: GI50

Row | SMILES | GI50 [3, 6] [nM] | GI50 [3, 7] [nM] | GI50 [1, 4] [nM] | GI50 [2, 5] [nM] | GI50 ([1]; 72 h) [nM] | GI50 ([3]; Homo sapiens, VCaP, 72 h) [nM] | GI50 ([2]; 72 h) [nM]
1 | CCS(=O)(=O)Nc1ccc(Oc2cccc(OCCOCCOCCOCCOCCOCCOCCOC3CCN(c4ccc(C(=O)N[C@H]5CC[C@H](Oc6ccc(C#N)c(Cl)c6)CC5)nn4)CC3)c2)c(-c2cn(C)c(=O)c3[nH]ccc23)c1 [I-4, N-[4-(3-chloro-4-cyano-phenoxy)cyclohexyl]-6-[4-[2-[2-[2-[2-[2-[2-[2-[3-[4-(ethylsulfonylamino)-2-(6-methyl-7-oxo-1H-pyrrolo[2,3-c]pyridin-4-yl)phenoxy]phenoxy]ethoxy]ethoxy]ethoxy]ethoxy]ethoxy]ethoxy]ethoxy]-1-piperidyl]pyridazine-3-carboxamide] | – | – | 1500 to 3000 | < 500 | – | – | –
2 | CCS(=O)(=O)Nc1ccc(Oc2cccc(OCCOC3CCN(c4ccc(C(=O)N[C@H]5CC[C@H](Oc6ccc(C#N)c(Cl)c6)CC5)nn4)CC3)c2F)c(-c2cn(C)c(=O)c3[nH]ccc23)c1 [I-16] | < 500 | – | < 500 | < 500 | – | – | –
3 | Cn1cc(-c2cc(NS(=O)(=O)CC(F)(F)F)ccc2Oc2cccc(OCCOC3CCN(c4ccc(C(=O)N[C@H]5CC[C@H](Oc6ccc(C#N)c(Cl)c6)CC5)nn4)CC3)c2F)c2cc[nH]c2c1=O [I-17] | < 500 | – | < 500 | < 500 | – | – | –
4 | CCS(=O)(=O)c1ccc(Oc2cccc(OCCOC3CCN(c4cnc(C(=O)N[C@H]5CC[C@H](Oc6ccc(C#N)c(Cl)c6)CC5)cn4)CC3)c2F)c(-c2cn(C)c(=O)c3[nH]ccc23)c1 [I-32] | < 500 | – | < 500 | < 500 | – | – | –
5 | CCS(=O)(=O)Nc1ccc(Oc2ccc(OCCOC3CCN(c4ccc(C(=O)N[C@H]5CC[C@H](Oc6ccc(C#N)c(Cl)c6)CC5)nn4)CC3)cc2)c(-c2cn(C)c(=O)c3[nH]ccc23)c1 [I-34] | – | < 500 | < 500 | < 500 | – | – | –
6 | CCS(=O)(=O)Nc1ccc(Oc2cccc(CCCOC3CCN(c4ccc(C(=O)N[C@H]5CC[C@H](Oc6ccc(C#N)c(Cl)c6)CC5)nn4)CC3)c2F)c(-c2cn(C)c(=O)c3[nH]ccc23)c1 [I-37, N-[4-(3-chloro-4-cyano-phenoxy)cyclohexyl]-6-[4-[3-[3-[4-(ethylsulfonylamino)-2-(6-methyl-7-oxo-1H-pyrrolo[2,3-c]pyridin-4-yl)phenoxy]-2-fluoro-phenyl]propoxy]-1-piperidyl]pyridazine-3-carboxamide] | – | – | – | – | < 500 | < 500 | < 500
7 | CCS(=O)(=O)Nc1ccc(Oc2cccc(CCC3CCN(c4ccc(C(=O)N[C@H]5CC[C@H](Oc6ccc(C#N)c(Cl)c6)CC5)nn4)CC3)c2)c(-c2cn(C)c(=O)c3[nH]ccc23)c1 [I-39] | < 500 | – | > 3000 | < 500 | – | – | –
8 | CCS(=O)(=O)c1ccc(Oc2cccc(CCCN3CCN(c4ccc(C(=O)N[C@H]5CC[C@H](Oc6ccc(C#N)c(Cl)c6)CC5)nn4)CC3)c2F)c(-c2cn(C)c(=O)c3[nH]ccc23)c1 [I-62] | – | < 500 | < 500 | < 500 | – | – | –
9 | CCS(=O)(=O)c1ccc(Oc2ccc(CCN3CC4(C3)CN(c3ccc(C(=O)N[C@H]5CC[C@H](Oc6ccc(C#N)c(Cl)c6)CC5)nn3)C4)cc2)c(-c2cn(C)c(=O)c3[nH]ccc23)c1 [I-63] | – | < 500 | < 500 | < 500 | – | – | –
10 | Cn1cc(-c2cc(C(C)(C)O)ccc2Oc2ccc(CCCCC3CCN(c4ccc(C(=O)N[C@H]5CC[C@H](Oc6ccc(C#N)c(Cl)c6)CC5)nn4)CC3)cc2)c2cc[nH]c2c1=O [I-125] | – | < 500 | – | – | – | – | –

Further lines, with some results ahead:

Row | GI50 [3, 6] [nM] | GI50 [3, 7] [nM] | SMILES | GI50 [1, 4] [nM] | GI50 [2, 5] [nM] | GI50 ([1]; 72 h) [nM] | GI50 ([3]; Homo sapiens, VCaP, 72 h) [nM] | GI50 ([2]; 72 h) [nM]
11 | < 500 | – | CCS(=O)(=O)Nc1ccc(Oc2cccc(OCCOC3CCN(c4ncc(C(=O)N[C@H]5CC[C@H](Oc6ccc(C#N)c(Cl)c6)CC5)cn4)CC3)c2)c(-c2cn(C)c(=O)c3[nH]ccc23)c1 [I-5, N-[4-(3-chloro-4-cyano-phenoxy)cyclohexyl]-2-[4-[2-[3-[4-(ethylsulfonylamino)-2-(6-methyl-7-oxo-1H-pyrrolo[2,3-c]pyridin-4-yl)phenoxy]phenoxy]ethoxy]-1-piperidyl]pyrimidine-5-carboxamide] | 500 to 1500 | < 500 | – | – | –
12 | < 500 | – | CCS(=O)(=O)Nc1ccc(Oc2cccc(CCOC3CCN(c4ccc(C(=O)N[C@H]5CC[C@H](Oc6ccc(C#N)c(Cl)c6)CC5)nn4)CC3)c2F)c(-c2cn(C)c(=O)c3[nH]ccc23)c1 [I-11] | < 500 | < 500 | – | – | –
13 | < 500 | – | CCS(=O)(=O)Nc1ccc(Oc2cccc(CCCN3CCN(c4ccc(C(=O)N[C@H]5CC[C@H](Oc6ccc(C#N)c(Cl)c6)CC5)nn4)CC3)c2F)c(-c2cn(C)c(=O)c3[nH]ccc23)c1 [I-13] | < 500 | < 500 | – | – | –
14 | < 500 | – | CCS(=O)(=O)Nc1ccc(Oc2cccc(OCCN3CCN(c4ccc(C(=O)N[C@H]5CC[C@H](Oc6ccc(C#N)c(Cl)c6)CC5)nn4)CC3)c2F)c(-c2cn(C)c(=O)c3[nH]ccc23)c1 [I-14] | < 500 | < 500 | – | – | –
15 | < 500 | – | CCS(=O)(=O)Nc1ccc(Oc2cccc(OCCCC3CCN(c4ccc(C(=O)NC5CCC(Oc6ccc(C#N)c(Cl)c6)CC5)nn4)CC3)c2F)c(-c2cn(C)c(=O)c3[nH]ccc23)c1 (stereo not drawn) [I-18] | < 500 | < 500 | – | – | –
16 | < 500 | – | CCS(=O)(=O)Cc1ccc(Oc2cccc(OCCOC3CCN(c4ccc(C(=O)N[C@H]5CC[C@H](Oc6ccc(C#N)c(Cl)c6)CC5)nn4)CC3)c2F)c(-c2cn(C)c(=O)c3[nH]ccc23)c1 [I-22] | < 500 | < 500 | – | – | –
17 | < 500 | – | CCS(=O)(=O)c1ccc(Oc2cccc(OCCOC3CCN(c4ccc(C(=O)N[C@H]5CC[C@H](Oc6ccc(C#N)c(Cl)c6)CC5)nn4)CC3)c2F)c(-c2cn(C)c(=O)c3[nH]ccc23)c1 [I-23] | < 500 | < 500 | – | – | –
18 | 1500 to 3000 | – | Cn1cc(-c2cc(NS(=O)(=O)C(F)(F)F)ccc2Oc2cccc(OCCOC3CCN(c4ccc(C(=O)N[C@H]5CC[C@H](Oc6ccc(C#N)c(Cl)c6)CC5)nn4)CC3)c2F)c2cc[nH]c2c1=O [I-24] | > 3000 | 500 to 1500 | – | – | –
19 | < 500 | – | CCS(=O)(=O)c1ccc(Oc2cccc(CCCOC3CCN(c4ccc(C(=O)N[C@H]5CC[C@H](Oc6ccc(C#N)c(Cl)c6)CC5)nn4)CC3)c2F)c(-c2cn(C)c(=O)c3[nH]ccc23)c1 [I-27] | < 500 | < 500 | – | – | –
20 | < 500 | – | CCS(=O)(=O)Nc1ccc(Oc2cccc(OCCOC3CCN(c4cnc(C(=O)N[C@H]5CC[C@H](Oc6ccc(C#N)c(Cl)c6)CC5)cn4)CC3)c2F)c(-c2cn(C)c(=O)c3[nH]ccc23)c1 [I-31] | < 500 | < 500 | – | – | –
21 | < 500 | – | CCS(=O)(=O)c1ccc(Oc2ccc(CCC3CCN(c4ccc(C(=O)NC5CCC(Oc6ccc(C#N)c(Cl)c6)CC5)nn4)CC3)cc2F)c(-c2cn(C)c(=O)c3[nH]ccc23)c1 (stereo not drawn) [I-45, N-[4-(3-chloro-4-cyano-phenoxy)cyclohexyl]-6-[4-[2-[4-[4-ethylsulfonyl-2-(6-methyl-7-oxo-1H-pyrrolo[2,3-c]pyridin-4-yl)phenoxy]-3-fluoro-phenyl]ethyl]-1-piperidyl]pyridazine-3-carboxamide] | < 500 | < 500 | – | – | –
